Experimental data published in PubChem BioAssay (NCI).
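Grown in 96-well plates, cells were treated for 48 hours with each compound at five concentrations. Insufficient inhibition: endpoint recorded as highest concentration tested. Definition used: TGI = concentration required for complete inhibition of growth.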

How the values were obtained:
Assay in all cases: NCI tumour cell line growth inhibition, 48 h
[1] = test system: SF-295 CNS
[2] = test system: KM12 colon
[3] = test system: OVCAR-3 ovarian
[4] = test system: SF-268 CNS
[5] = test system: OVCAR-8 ovarian
[6] = test system: M14 melanoma
[7] = test system: HCT-15 colon
[8] = test system: OVCAR-4 ovarian
[9] = test system: DU-145 prostate
[10] = test system: SN12C renal
[11] = test system: HOP-92 NSCLC
[12] = test system: OVCAR-5 ovarian
[13] = test system: CAKI-1 renal
[14] = test system: SK-MEL-28 melanoma
[15] = test system: K-562 leukemia
[16] = test system: IGROV1 ovarian
[17] = test system: ACHN renal
[18] = test system: HCC-2998 colon
[19] = test system: MCF7 breast
[20] = test system: MDA-MB-231 breast
[21] = test system: 786-0 renal
[22] = test system: NCI-H23 lung
[23] = test system: BT-549 breast
[24] = test system: T-47D breast
[25] = test system: HT29 colon
[26] = test system: HL-60(TB) leukemia
[27] = test system: NCI-H522 lung
[28] = test system: RXF 393 renal
[29] = test system: UACC-257 melanoma
[30] = test system: LOX IMVI melanoma
[31] = test system: A498 renal
[32] = test system: RPMI-8226 leukemia
[33] = test system: HS 578T breast
[34] = test system: HCT-116 colon
[35] = test system: SNB-75 CNS
[36] = test system: U251 CNS
[37] = test system: A549 NSCLC
[38] = test system: NCI-H460 lung
[39] = test system: MALME-3M melanoma
[40] = test system: CCRF-CEM leukemia
[41] = test system: EKVX NSCLC
[42] = test system: UO-31 renal
[43] = test system: SR leukemia
[44] = test system: MDA-N
[45] = test system: MDA-MB-435
[46] = test system: SK-OV-3 ovarian
[47] = test system: SK-MEL-2 melanoma
[48] = test system: SNB-19 CNS
[49] = test system: HOP-62 NSCLC
[50] = test system: TK-10 renal
[51] = test system: SW-620 colon
[52] = test system: UACC-62 melanoma
[53] = test system: NCI/ADR-RES ovarian
[54] = test system: SK-MEL-5 melanoma
[55] = test system: SF-539 CNS
[56] = test system: PC-3 prostate
[57] = test system: NCI-H226 lung
[58] = test system: COLO 205 colon
[59] = test system: MOLT-4 leukemia

Measured: TGI

O=P(O)(O)OC1OC(CO)C(O)C(O)C1O (centres undefined)
not listed: [55] | [56] | [57] | [58] | [59]
> 100 µM: all other assays above

O=c1n(N=S(=O)(c2ccccc2)c2ccccc2)c(=O)n2n1C1C=CC2CC1
not listed: [8] | [18] | [27] | [28] | [39]
> 100 µM: all other assays above

CC1=CC(=O)C(=C(C)C)CC1
not listed: [11] | [18] | [31] | [32] | [47] | [51] | [55] | [58]
> 100 µM: all other assays above
